The source of these data is PMC9310824 (Drug Delivery, 2022).

Data set [1] concerns rat osteoporosis model (OVX). Briefly: Anti-osteoporotic effect in OVX rats: micro-CT analysis of femur. Format: in vivo. The method, then: (§1) Bilateral ovariectomy (OVX) was performed to establish the rat osteoporosis model according to earlier work (Shakir et al., [2015]). Next, 24 rats were randomly divided into four groups (n = 6): sham operation group (Sham), OVX model group (OVX), free AS group (AS) and AS-AL-mPEG-PLGA group. Rats were anesthetized by intraperitoneal injection of pentobarbital sodium (1%, 8 mL/kg). Later, the rats were placed on a sterile table and fixed prone, while the surgical site on the back was shaved and sterilized with iodophor. Double incisions were taken under the costal back to separate the muscular layer and retroperitoneum into the abdominal cavity. The ovaries were found in the adipose tissue below the kidneys and were removed with bent tweezers and ligated before complete excision of the bilateral ovaries. After confirming that there was no active bleeding, the muscle layer and skin were interlocked, whilst the wound was disinfected. In the Sham group, only a small amount of adipose tissue around the ovaries was removed without damage to both ovaries. The operation was done gently while attention was paid to the sterility principle. After the operation, the rats were kept warm, while drug administration began 4 weeks afterwards at once a day for 12 weeks. Rats in the groups Sham and OVX were given 2 mL of normal saline via the oral route. Rats in the AS and AS-AL-mPEG-PLGA groups orally received 2 mL of free AS (dispersed in CMC-Na solution, 150 mg/kg) and AS-AL-mPEG-PLGA solution (150 mg/kg) every day, respectively.
In order to evaluate the bone microstructure, the right femur was analyzed with high-resolution micro-CT using the micro-CT imaging system (Siemens, Inveon) according to the method described in the literature (Zhang et al., [2012]). The femur was fixed in the centrifuge tube by the long axis, while the surrounding was filled with gauze. Quantitative parameters of bone microstructure including percent bone volume (BV/TV), trabecular thickness (Tb.Th), trabecular number (Tb.N), trabecular separation (Tb.Sp), structural model index (SMI) and bone mineral density (BMD) were measured. All the digital data, 2 D and 3 D images were provided by the built-in software of micro-CT (Siemens, Inveon).

The subject of data set [2] is rat osteoporosis model (OVX). The data set can be described thus: Anti-osteoporotic effect in OVX rats: histological analysis (H&E) of femur. Format: in vivo. The following applies: compared with the OVX group. As to the method: as §1, with “Rats in the AS and AS-AL-mPEG-PLGA groups orally received 2 mL of free AS (dispersed in CMC-Na solution, 150 mg/kg) and AS-AL-mPEG-PLGA solution (150 mg/kg) every day, respectively.” left out

Details of data set [3]: method as in Zhang et al., 2007. The following applies: after p.o. administration, ref Zhang et al., 2007; cited from earlier work.
Data set [4] can be described thus: Drug release study in vitro by dialysis. Format: physicochemical. The following applies: within 48 h, 37 °C. As to the method: The release of AS in vitro was determined by dialysis (Algul et al., [2018]). AS free drug dispersion solution (5 mg/mL, 1 mL) and AS-AL-mPEG-PLGA containing the same volume and concentration of AS were added into dialysis bags (MV 3500 D, 25 mm × 5 m) accordingly. The dialysis bags were placed in a conical flask after their two sections have been fastened together. Subsequently, 100 mL releasing media (pH 1.2 HCl solution, double distilled water and pH 7.4 PBS solution) were added consequently, before the conical flask was placed in a thermostatic water bath oscillator (37 ± 0.5 °C, 100 rpm) for in vitro release experiment. Samples were taken from the conical flask after 0.083, 0.25, 0.5, 0.75, 1, 1.5, 2, 3, 4, 6, 8, 10, 12, 24, 36, 48, 60, 72, 84 and 96 h of oscillation, respectively, while the same stable release medium with the same volume was added accordingly to maintain its dynamic balance. The samples were centrifugated at 10,000 rpm for 10 min before injection into HPLC for analysis according to the chromatographic conditions under the section of “HPLC analysis of AS.” Finally, the peak areas were recorded, and the concentrations of AS were substituted into the standard curve to calculate the cumulative drug release rate.

The nature of data set [5]: Detection of AS content in rats' bones. As to conditions: femur homogenate (1 g/mL saline) after the pharmacokinetic experiment, oral 150 mg/kg. Format: in vivo. As to the method: After the pharmacokinetic experiment, the rats were sacrificed and the femurs were homogenized with normal saline at a ratio of 1 g/mL. We then centrifugated the homogenized samples at 10,000 rpm for 10 min, before treatment of the supernatant (200 μL) via the same method as described in the section “Pharmacokinetic study in rats.” Finally, the samples were analyzed via the HPLC method to detect the AS concentration in rats’ bones.

In data set [6] the test system is rat osteoporosis model (OVX). Briefly: Anti-osteoporotic effect in OVX rats: serum biochemical analysis (ELISA). Format: in vivo. The method, then:
as §1
All the rats were sacrificed and blood samples were collected. The serum levels of TRACP-5b, BGP, IL-6 and CTX-1 were determined by enzyme-linked immunosorbent assay (ELISA) to evaluate bone absorption and bone formation. The operation steps were strictly in accordance with the instructions of the kits. Finally, the absorbances of the samples were measured at 450 nm with the microplate reader, so as to calculate the concentration of each biochemical index in the serum.

A short description of data set [7]: Pharmacokinetic study in rats. Format: in vivo, SD rats. The following applies: oral. As to the method:
Twelve SD rats (male, 200 ± 20 g) were maintained in the laboratory environment for 3 days before experiments. The rats were randomly divided into the free AS group and AS-AL-mPEG-PLGA group with 6 rats in each group. The rats have fasted from food for 12 h with free access to water before the experiment. Rats in the two groups were orally given free AS (dispersed CMC-Na solution) and AS-AL-mPEG-PLGA of equivalent AS dose (150 mg/kg). At each point of 0.25, 0.5, 0.75, 1, 1.5, 2, 2.5, 3, 4, 6, 8, 10, 12 and 24 h after administration, blood samples (0.4 mL) were collected from the orbit of rats with capillaries. The blood samples were placed in a 1.5 mL EP tube filled with heparin sodium and centrifuged at 3700 rpm for 10 min. Aliquot (200 μL) of supernatant was collected into another clean 1.5 mL EP tube. Next, 600 μL of methanol was added into the tube before vortexing for 1 min. The mixture was centrifuged at 10,000 rpm for 10 min and the methanol layer was […] prior to drying with N2 at 37 °C. The residue was dissolved with 100 μL methanol coupled with vortexing for 1 min, and then 10 min of centrifugation at 10,000 rpm. Then, the supernatant was taken and analyzed with HPLC. The peak areas of AS and internal standard were recorded and substituted into the standard curve in vivo to subsequently calculate the concentration of AS.

Details of data set [8]: method as in Yao et al., 2014. The following applies: PBS, within 24 h, ref Yao et al., 2014; cited from earlier work.
The mark [9] stands for this setting: oral 150 mg/kg daily, 12 weeks, P < .01.

On to Astragaloside, for which the “bone microstructure in 2D and 3D micro-CT images” value in data set [1] (compared with OVX group) was “significantly reduce osteoporosis and increase dense bone mass”. Also, in data set [1] (oral 150 mg/kg daily, 12 weeks), the “BMD (bone mineral density)” value is listed as “notably increased”, the “BV/TV (percent bone volume)” value is listed as “notably increased”, the “SMI (structural model index)” value is “substantially reduced” and the “Tb.N (trabecular number)” value is on record as “notably increased”. Moreover, in data set [1] (oral 150 mg/kg daily, 12 weeks), the “Tb.Sp (trabecular separation)” value is “substantially reduced” and the “Tb.Th (trabecular thickness)” value is “notably increased”. Moreover, in data set [2], the “adipose tissue in femur, H&E staining” value was “relatively less adipose tissue”. Also, the absolute bioavailability in data set [3] is 7.4%. In data set [4] (double distilled water), this compound came in with a cumulative release rate of 93.85%. In data set [4] (pH 1.2 HCl solution), this compound displayed a cumulative release rate of 96.87%. This compound also came in with a cumulative release rate in data set [4] (pH 7.4 PBS solution) of 95.95%. Moreover, the “concentration of AS in bone” value in data set [5] came out at 1950 ± 170 ng/mL. Further, in data set [6] (setting [9]), the “expression level of IL-6 compared with OVX group” value was “decreased significantly”, the “serum level of BGP compared with OVX group” value is “significantly decreased”, the “serum level of CTX-1 compared with OVX group” value is recorded as “significantly decreased” and the “serum level of TRACP-5b compared with OVX group” value is recorded as “significantly decreased”. In addition, the “serum level of IL-6” value in data set [6] (oral 150 mg/kg once a day for 12 weeks) was found to be 53.88 ± 4.23 pg/mL. Also, in data set [7] (150 mg/kg), the “mean plasma concentration at 1440 min” value was 260 ± 50 ng/mL. In data set [7] (AS dose 150 mg/kg), this compound registered an AUC0-t of 1520.45 ± 45.19 µg·min/mL, a Cmax of 5250 ± 500 ng/mL, an MRT of 5.55 ± 0.143 h and a T1/2 of 6.5952 ± 0.4407 h. In data set [7] (AS dose 150 mg/kg), the Tmax was found to be 2 ± 0 h.
As for `CN(C)c1ccc(O)c2c1C[C@H]1C[C@H]3[C@H](N(C)C)C(O)=C(C(N)=O)C(=O)[C@@]3(O)C(O)=C1C2=O` [free minocycline, minocycline], the minocycline released in data set [8] is recorded as about 100%.
